In patent US11419857B2, “Methods and compositions for treating pain” (Apkarian Technologies LLC, priority 2015, dated 2022):

Test system: iSPNs in NAc shell slices
Experiment: Whole-cell patch-clamp recording of iSPN excitability in NAc shell slices, drugs bath applied
Type: cell-based, mice
Protocol: Current clamp recordings were performed to quantify firing properties.
Sulpiride and Bicifadine were obtained from Tocris. CBR12909 was obtained from Sigma-Aldrich. Drugs were bath applied for at least 15 min to establish equilibrium in the tissue.

SMILES | excitability of iSPNs (slices from SNI mice, bath application 20 μM) | excitability of iSPNs (brain slices from sham mice, 5 μM) | excitability of iSPNs (slices from SNI mice, 5 μM)
Cc1ccc(C23CNCC2C3)cc1 (stereo not drawn) [bicifadine] | decreased the excitability of iSPNs | – | –
CCN1CCCC1CNC(=O)c1cc(S(N)(=O)=O)ccc1OC (stereo not drawn) [sulpiride] | – | increased the excitability of iSPNs | no detectable change in iSPNs excitability
